One may read the Ki as a measure of affinity in units of concentration, obtained from inhibition or displacement.

Drawing on patent US10844032B2, “Substituted benzofuran, benzothiophene and indole Mcl-1 inhibitors” (Vanderbilt University, priority 2012, dated 2020), this text covers Ki for 28 compounds.

Structures are written as SMILES. Bounds are passed on as bounds.

recombinant Mcl-1 (residues 172-327), sequence (Q07820 172-327): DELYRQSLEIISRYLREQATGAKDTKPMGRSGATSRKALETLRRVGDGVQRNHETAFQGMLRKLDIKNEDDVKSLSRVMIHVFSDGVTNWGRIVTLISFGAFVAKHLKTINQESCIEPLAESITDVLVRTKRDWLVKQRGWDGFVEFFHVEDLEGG

The first assay concerns the target recombinant Mcl-1 (residues 172-327) (Homo sapiens (Human), UniProt Q07820). The assay can be described thus: Bak peptide fluorescence polarization anisotropy competition assay, Mcl-1. Type of assay: binding.
Settings: not given
On the technique in general: Polarisation of emitted light reports the rotation of a fluorescent probe.
Turning to `Cc1cccc(S(=O)(=O)NC(=O)c2c(CCCOc3cc(C)c(Cl)c(C)c3)c3ccc(Cl)cc3n2Cc2cccnc2)c1` [Example 273, 6-chloro-3-(3-(4-chloro-3,5-dimethylphenoxy)propyl)-1-(pyridin-3-ylmethyl)-N-(m-tolylsulfonyl)-1H-indole-2-carboxamide], the Ki was in the range of 0.101 to 0.299 µM.

The same assay, now with this note: Table 2, Ki range; FITC-Bak peptide 10 nM, Mcl-1 14 nM; read-out: Ki for inhibition of Mcl-1.
Regarding `Cc1cc(OCCCc2c(C(=O)NS(=O)(=O)CCNC(=O)c3cccc(C(F)(F)F)c3)[nH]c3cc(Cl)ccc23)cc(C)c1Cl` [Example 255, 6-chloro-3-(3-(4-chloro-3,5-dimethylphenoxy)propyl)-N-((2-(3-(trifluoromethyl)benzamido)ethyl)sulfonyl)-1H-indole-2-carboxamide], the Ki is no more than 0.1 µM. The same measure, in the same setting: in the case of `Cc1cc(OCCCc2c(C(=O)NS(=O)(=O)c3ccc(CO)o3)[nH]c3cc(Cl)ccc23)cc(C)c1Cl` [Example 260, -chloro-3-(3-(4-chloro-3,5-dimethylphenoxy)propyl)-N-((5-(hydroxymethyl)furan-2-yl)sulfonyl)-1H-indole-2-carboxamide] it was no more than 0.1 µM.

On to `Cc1cc(OCCCc2c(C(=O)NS(=O)(=O)c3ccc(C(=O)O)o3)[nH]c3cc(Cl)ccc23)cc(C)c1Cl` [Example 261], for which the Ki is no more than 0.1 µM.

As for `COC(=O)c1cc(S(=O)(=O)NC(=O)c2[nH]c3cc(Cl)ccc3c2CCCOc2cc(C)c(Cl)c(C)c2)oc1C` [Example 264, methyl 5-(N-(6-chloro-3-(3-(4-chloro-3,5-dimethylphenoxy)propyl)-1H-indole-2-carbonyl)sulfamoyl)-2-methylfuran-3-carboxylate], the Ki is no more than 0.1 µM. Consider `Cc1cc(OCCCc2c(C(=O)NS(=O)(=O)c3ccc(C(=O)O)n3C)[nH]c3cc(Cl)ccc23)cc(C)c1Cl` [Example 266, 5-(N-(6-chloro-3-(3-(4-chloro-3,5-dimethylphenoxy)propyl)-1H-indole-2-carbonyl)sulfamoyl)-1-methyl-1H-pyrrole-2-carboxylic acid], for which the Ki is no more than 0.1 µM. For the compound `Cc1cc(OCCCc2c(C(=O)NS(=O)(=O)CCNC(=O)c3cc(C)n(-c4ccc(F)cc4)c3C)[nH]c3ccccc23)cc(C)c1Cl` [Example 279, 3-(3-(4-chloro-3,5-dimethylphenoxy)propyl)-N-((2-(1-(4-fluorophenyl)-2,5-dimethyl-1H-pyrrole-3-carboxamido)ethyl)sulfonyl)-1H-indole-2-carboxamide], the Ki was no more than 0.1 µM. In the case of `Cc1cc2nccn2cc1-c1cccc2c(CCCOc3cc(C)c(Cl)c(C)c3)c(C(=O)NS(=O)(=O)c3ccccc3)[nH]c12` [Example 299, 3-(3-(4-chloro-3,5-dimethylphenoxy)propyl)-7-(7-methylimidazo[1,2-a]pyridin-6-yl)-N-(phenylsulfonyl)-1H-indole-2-carboxamide], the Ki was no more than 0.1 µM.

For the compound `Cc1cc2nnnn2cc1-c1cccc2c(CCCOc3cc(C)c(Cl)c(C)c3)c(C(=O)NS(=O)(=O)c3ccccc3)[nH]c12` [Example 300, 3-(3-(4-chloro-3,5-dimethylphenoxy)propyl)-7-(7-methyltetrazolo[1,5-a]pyridin-6-yl)-N-(phenylsulfonyl)-1H-indole-2-carboxamide], the Ki was no more than 0.1 µM. Same read-out and setting: then `COc1nccc(C)c1-c1cccc2c(CCCOc3cc(C)c(Cl)c(C)c3)c(C(=O)NS(=O)(=O)c3ccccc3)[nH]c12` [Example 301, 3-(3-(4-chloro-3,5-dimethylphenoxy)propyl)-7-(2-methoxy-4-methylpyridin-3-yl)-N-(phenylsulfonyl)-1H-indole-2-carboxamide], with no more than 0.1 µM.

The assay is the same for the next values; noted with them: read-out: Ki for inhibition of Mcl-1.
On to `Cc1cc(OCCCc2c(C(=O)NS(=O)(=O)CCCN3C(=O)c4ccccc4C3=O)[nH]c3cc(Cl)ccc23)cc(C)c1Cl` [Example 256, 6-chloro-3-(3-(4-chloro-3,5-dimethylphenoxy)propyl)-N-((3-(1,3-dioxoisoindolin-2-yl)propyl)sulfonyl)-1H-indole-2-carboxamide], for which the Ki lay within 0.501 to 0.999 µM. For the compound `Cc1cc(OCCCc2c(C(=O)NS(=O)(=O)CCCNC(=O)CCc3cc(-c4ccccc4)n[nH]3)[nH]c3cc(Cl)ccc23)cc(C)c1Cl` [Example 257, 6-chloro-3-(3-(4-chloro-3,5-dimethylphenoxy)propyl)-N-((3-(3-(3-phenyl-1H-pyrazol-5-yl)propanamido)propyl)sulfonyl)-1H-indole-2-carboxamide], the Ki lay within 0.301 to 0.5 µM.

For `Cc1cc(OCCCc2c(C(=O)NS(=O)(=O)CCCNC(=O)c3cccn3Cc3ccccc3)[nH]c3cc(Cl)ccc23)cc(C)c1Cl` [Example 258, N-((3-(1-benzyl-1H-pyrrole-2-carboxamido)propyl)sulfonyl)-6-chloro-3-(3-(4-chloro-3,5-dimethylphenoxy)propyl)-1H-indole-2-carboxamide], the Ki lay within 0.101 to 0.299 µM.

As to `COC(=O)c1ccc(S(=O)(=O)NC(=O)c2[nH]c3cc(Cl)ccc3c2CCCOc2cc(C)c(Cl)c(C)c2)o1` [Example 259], the Ki was 0.101 to 0.299 µM.

Turning to `Cc1cc(OCCCc2c(C(=O)NS(=O)(=O)c3ccc(C(=O)N4CCOCC4)o3)[nH]c3cc(Cl)ccc23)cc(C)c1Cl` [Example 262, 6-chloro-3-(3-(4-chloro-3,5-dimethylphenoxy)propyl)-N-((5-(morpholine-4-carbonyl)furan-2-yl)sulfonyl)-1H-indole-2-carboxamide], the Ki is 0.101 to 0.299 µM.

Take `Cc1cc(OCCCc2c(C(=O)NS(=O)(=O)c3ccc(C(=O)NC4CCOCC4)o3)[nH]c3cc(Cl)ccc23)cc(C)c1Cl` [Example 263, 6-chloro-3-(3-(4-chloro-3,5-dimethylphenoxy)propyl)-N-((5-((tetrahydro-2H-pyran-4-yl)carbamoyl)furan-2-yl)sulfonyl)-1H-indole-2-carboxamide]: the Ki is 0.101 to 0.299 µM.

Consider `COC(=O)c1ccc(S(=O)(=O)NC(=O)c2[nH]c3cc(Cl)ccc3c2CCCOc2cc(C)c(Cl)c(C)c2)n1C` [Example 265, methyl 5-(N-(6-chloro-3-(3-(4-chloro-3,5-dimethylphenoxy)propyl)-1H-indole-2-carbonyl)sulfamoyl)-1-methyl-1H-pyrrole-2-carboxylate], for which the Ki lay within 0.101 to 0.299 µM. On to `Cc1cc(OCCCc2c(C(=O)NS(=O)(=O)c3ccc(C(=O)N4CCOCC4)n3C)[nH]c3cc(Cl)ccc23)cc(C)c1Cl` [Example 267, 6-chloro-3-(3-(4-chloro-3,5-dimethylphenoxy)propyl)-N-((1-methyl-5-(morpholine-4-carbonyl)-1H-pyrrol-2-yl)sulfonyl)-1H-indole-2-carboxamide], for which the Ki fell in the range of 0.101 to 0.299 µM. `Cc1cc(OCCCc2c(C(=O)NS(C)(=O)=O)n(C)c3cc(Cl)ccc23)cc(C)c1Cl` [Example 268, 6-chloro-3-(3-(4-chloro-3,5-dimethylphenoxy)propyl)-1-methyl-N-(methylsulfonyl)-1H-indole-2-carboxamide]: the Ki is 0.501 to 0.999 µM.

With `Cc1cc(OCCCc2c(C(=O)NS(=O)(=O)c3ccccc3)n(C)c3cc(Cl)ccc23)cc(C)c1Cl` [Example 269, 6-chloro-3-(3-(4-chloro-3,5-dimethylphenoxy)propyl)-1-methyl-N-(phenylsulfonyl)-1H-indole-2-carboxamide], the Ki was 0.301 to 0.5 µM. With `Cc1cc(OCCCc2c(C(=O)NS(=O)(=O)c3ccc(OCc4ccccc4)cc3)n(C)c3cc(Cl)ccc23)cc(C)c1Cl` [Example 270, N-((4-(benzyloxy)phenyl)sulfonyl)-6-chloro-3-(3-(4-chloro-3,5-dimethylphenoxy)propyl)-1-methyl-1H-indole-2-carboxamide], the Ki was in the range of 0.301 to 0.5 µM. With `Cc1cc(OCCCc2c(C(=O)NS(C)(=O)=O)n(Cc3cccnc3)c3cc(Cl)ccc23)cc(C)c1Cl` [Example 271, 6-chloro-3-(3-(4-chloro-3,5-dimethylphenoxy)propyl)-N-(methylsulfonyl)-1-(pyridin-3-ylmethyl)-1H-indole-2-carboxamide], the Ki was in the range of 0.301 to 0.5 µM. Same read-out and setting: in the case of `Cc1cc(OCCCc2c(C(=O)NS(=O)(=O)c3ccccc3)n(Cc3cccnc3)c3cc(Cl)ccc23)cc(C)c1Cl` [Example 272, 6-chloro-3-(3-(4-chloro-3,5-dimethylphenoxy)propyl)-N-(phenylsulfonyl)-1-(pyridin-3-ylmethyl)-1H-indole-2-carboxamide] it was 0.101 to 0.299 µM; in that of `Cc1cc(OCCCc2c(C(=O)NS(=O)(=O)c3ccc(OCc4ccccc4)cc3)n(Cc3cccnc3)c3cc(Cl)ccc23)cc(C)c1Cl` [Example 274, N-((4-(benzyloxy)phenyl)sulfonyl)-6-chloro-3-(3-(4-chloro-3,5-dimethylphenoxy)propyl)-1-(pyridin-3-ylmethyl)-1H-indole-2-carboxamide], 1 to 9.99 µM; in that of `Cc1cc(OCCCc2c(C(=O)NS(=O)(=O)CCNC(=O)C3CCCCC3)n(Cc3cccnc3)c3cc(Cl)ccc23)cc(C)c1Cl` [Example 275, 6-chloro-3-(3-(4-chloro-3,5-dimethylphenoxy)propyl)-N-((2-(cyclohexanecarboxamido)ethyl)sulfonyl)-1-(pyridin-3-ylmethyl)-1H-indole-2-carboxamide], 0.101 to 0.299 µM. The same measure, in the same setting: in the case of `Cc1cc(OCCCc2c(C(=O)NS(=O)(=O)CCNC(=O)c3cccc(Oc4ccccc4)c3)n(Cc3cccnc3)c3cc(Cl)ccc23)cc(C)c1Cl` [Example 276, 6-chloro-3-(3-(4-chloro-3,5-dimethylphenoxy)propyl)-N-((2-(3-phenoxybenzamido)ethyl)sulfonyl)-1-(pyridin-3-ylmethyl)-1H-indole-2-carboxamide] it was 0.301 to 0.5 µM. The same measure, in the same setting: then `Cc1cc(OCCCc2c(C(=O)NS(=O)(=O)CCNC(=O)c3cccn3Cc3ccccc3)n(Cc3cccnc3)c3cc(Cl)ccc23)cc(C)c1Cl` [Example 277, N-((2-(1-benzyl-1H-pyrrole-2-carboxamido)ethyl)sulfonyl)-6-chloro-3-(3-(4-chloro-3,5-dimethylphenoxy)propyl)-1-(pyridin-3-ylmethyl)-1H-indole-2-carboxamide], with 0.301 to 0.5 µM.

Consider `Cc1cc(OCCCc2c(C(=O)NS(=O)(=O)CCNC(=O)c3cccn3Cc3ccccc3)n(Cc3ccccc3)c3cc(Cl)ccc23)cc(C)c1Cl` [Example 278, 1-benzyl-N-((2-(1-benzyl-1H-pyrrole-2-carboxamido)ethyl)sulfonyl)-6-chloro-3-(3-(4-chloro-3,5-dimethylphenoxy)propyl)-1H-indole-2-carboxamide], for which the Ki lay within 0.101 to 0.299 µM.
